Assay results as given in PubChem BioAssay AID248 (DTP/NCI, 2004).
Inconclusive results and toxic doses are left out.

Test system: L1210 leukemia ip in BDF1 mice, survival T/C
Test: NCI In Vivo Anticancer Drug Screen. Data for tumor model L1210 Leukemia (intraperitoneal) in B6D2F1 (BDF1) mice
Conditions: endpoint: mean survival time, higher = longer survival
How it was run: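 Value reflects the ratio of survival in compound-treated mice to survival in vehicle-treated controls, with both groups carrying the same transplanted tumor.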

[1] = dose: 100.0 mg/kg/injection, schedule: Q04DX003 (ip), vehicle: saline
[2] = dose: 200.0 mg/kg/injection, schedule: Q04DX003 (ip), vehicle: saline
[3] = dose: 50.0 mg/kg/injection, schedule: Q01DX001 (ip), vehicle: saline
[4] = dose: 100.0 mg/kg/injection, schedule: Q01DX001 (ip), vehicle: saline
[5] = dose: 200.0 mg/kg/injection, schedule: Q01DX001 (ip), vehicle: saline
[6] = dose: 100.0 mg/kg/injection, schedule: Q01DX009 (ip), vehicle: saline with Tween-80
[7] = dose: 200.0 mg/kg/injection, schedule: Q01DX009 (ip), vehicle: saline with Tween-80
[8] = dose: 100.0 mg/kg/injection, schedule: Q04DX003 (ip), vehicle: Klucel (hydroxypropylcellulose) (HPC)
[9] = dose: 200.0 mg/kg/injection, schedule: Q04DX003 (ip), vehicle: Klucel (hydroxypropylcellulose) (HPC)
[10] = dose: 400.0 mg/kg/injection, schedule: Q04DX003 (ip), vehicle: Klucel (hydroxypropylcellulose) (HPC)
[11] = dose: 100.0 mg/kg/injection, schedule: Q01DX009 (ip), vehicle: Klucel (hydroxypropylcellulose) (HPC)

For `CC(=O)Nc1cc(C(=O)Nc2ccc(C3=NCCN3)cc2)ccc1C(=O)Nc1ccc(C2=NCCN2)cc1`, the T/C (dose: 7.5 mg/kg/injection, schedule: Q01DX Z (oral), vehicle: saline) was 103 % of control, the T/C (dose: 15.0 mg/kg/injection, schedule: Q01DX Z (ip), vehicle: saline) was 271 % of control and the T/C (dose: 15.0 mg/kg/injection, schedule: Q01DX Z (oral), vehicle: saline) was 105 % of control. The T/C (dose: 30.0 mg/kg/injection, schedule: Q01DX Z (oral), vehicle: saline) was 104 % of control, the T/C (dose: 60.0 mg/kg/injection, schedule: Q01DX Z (oral), vehicle: saline) was 105 % of control and the T/C (dose: 62.5 mg/kg/injection, schedule: Q## X009 (oral), vehicle: saline) was 97 % of control. The T/C (dose: 75.0 mg/kg/injection, schedule: Q01DX Z (oral), vehicle: saline) was 90 % of control, the T/C (dose: 125.0 mg/kg/injection, schedule: Q## X009 (oral), vehicle: saline) was 97 % of control and the T/C (dose: 150.0 mg/kg/injection, schedule: Q01DX Z (oral), vehicle: saline) was 86 % of control. For the same molecule, the T/C (dose: 500.0 mg/kg/injection, schedule: Q## X009 (oral), vehicle: saline) was 101 % of control.

For `O=C(NC(CSC(c1ccccc1)(c1ccccc1)c1ccccc1)C(=O)O)OCc1ccccc1` (stereo unspecified), the T/C [1] was 105 % of control, the T/C [2] was 100 % of control and the T/C (dose: 400.0 mg/kg/injection, schedule: Q04DX003 (ip), vehicle: saline) was 105 % of control.

With `CC(O)(CC(=O)O)c1ccc([N+](=O)[O-])cc1` (stereo unspecified) the T/C [3] was 96 % of control, the T/C [4] was 102 % of control and the T/C [5] was 108 % of control. For the same molecule, the T/C (dose: 400.0 mg/kg/injection, schedule: Q01DX001 (ip), vehicle: saline) was 102 % of control.

In the case of `COC1OCC(NC(C)=O)C(OC(C)=O)C1OC(C)=O` (stereo unspecified), the T/C (dose: 50.0 mg/kg/injection, schedule: Q01DX001 (sc), vehicle: saline) is reported as 104 % of control, the T/C (dose: 100.0 mg/kg/injection, schedule: Q01DX001 (sc), vehicle: saline) is reported as 101 % of control and the T/C (dose: 200.0 mg/kg/injection, schedule: Q01DX001 (sc), vehicle: saline) is reported as 111 % of control. The T/C (dose: 400.0 mg/kg/injection, schedule: Q01DX001 (sc), vehicle: saline) was 95 % of control.

With `Cc1cn(C2CCCCC2)c(=O)[nH]c1=O` the T/C (dose: 25.0 mg/kg/injection, schedule: Q01DX Z (ip), vehicle: methylcellulose (MC)) was 89 % of control and the T/C (dose: 50.0 mg/kg/injection, schedule: Q01DX Z (ip), vehicle: methylcellulose (MC)) was 92 % of control.

`CC(=O)ON1C(=O)c2ccccc2C1=O` was tested, and the T/C [3] was 102 % of control, the T/C [4] was 100 % of control and the T/C [5] was 102 % of control.

In the case of `O=C(O)C(O)c1cccc2ccccc12` (stereo unspecified), the T/C [6] is reported as 100 % of control and the T/C [7] is reported as 100 % of control.

With `O=C(O)c1ccc(S(=O)(=O)N(Cl)Cl)cc1` the T/C [6] was 96 % of control, the T/C [7] was 100 % of control and the T/C (dose: 400.0 mg/kg/injection, schedule: Q01DX009 (ip), vehicle: saline with Tween-80) was 98 % of control.

`CC(=N/N(Cc1ccccc1)c1ccccc1)/C(C)=N/N(Cc1ccccc1)c1ccccc1` was tested, and the T/C (dose: 100.0 mg/kg/injection, schedule: Q01DX001 (ip), vehicle: other) was 89 % of control, the T/C (dose: 200.0 mg/kg/injection, schedule: Q01DX001 (ip), vehicle: other) was 89 % of control and the T/C (dose: 400.0 mg/kg/injection, schedule: Q01DX001 (ip), vehicle: other) was 89 % of control.

For `[O-][n+]1c2ccccc2nc2ccccc21`, the T/C [8] was 98 % of control, the T/C [9] was 98 % of control and the T/C [10] was 89 % of control.

In the case of `Nc1ccc(C(=O)O)cn1`, the T/C [3] is reported as 96 % of control, the T/C [4] is reported as 106 % of control and the T/C [5] is reported as 100 % of control.

For `O=c1[nH]c2ccccc2n1C1CCN(CCCC(c2ccc(F)cc2)c2ccc(F)cc2)CC1`, the T/C (dose: 12.5 mg/kg/injection, schedule: Q01DX009 (ip), vehicle: Klucel (hydroxypropylcellulose) (HPC)) was 100 % of control, the T/C (dose: 25.0 mg/kg/injection, schedule: Q01DX009 (ip), vehicle: Klucel (hydroxypropylcellulose) (HPC)) was 120 % of control and the T/C (dose: 25.0 mg/kg/injection, schedule: Q04DX003 (ip), vehicle: Klucel (hydroxypropylcellulose) (HPC)) was 88 % of control. The T/C (dose: 50.0 mg/kg/injection, schedule: Q04DX003 (ip), vehicle: Klucel (hydroxypropylcellulose) (HPC)) was 104 % of control, the T/C [11] was 88 % of control and the T/C [8] was 104 % of control. For the same molecule, the T/C [9] was 109 % of control and the T/C [10] was 95 % of control.

In the case of `C=C1C(=O)OC2C1C(O)CC(C)(O)C1CC=C(C)C21` (stereo unspecified), the T/C (dose: 100.0 mg/kg/injection, schedule: Q04DX002 (ip), vehicle: saline) is reported as 102 % of control, the T/C (dose: 200.0 mg/kg/injection, schedule: Q04DX002 (ip), vehicle: saline) is reported as 102 % of control and the T/C (dose: 400.0 mg/kg/injection, schedule: Q04DX002 (ip), vehicle: saline) is reported as 94 % of control.

For `COc1ccc2c(c1OC(C)=O)-c1cc(OC(C)=O)cc3c1C(C2)N(C)CC3` (stereo unspecified), the T/C (dose: 25.0 mg/kg/injection, schedule: Q04DX003 (ip), vehicle: DMSO) was 93 % of control, the T/C (dose: 50.0 mg/kg/injection, schedule: Q04DX003 (ip), vehicle: DMSO) was 95 % of control and the T/C (dose: 100.0 mg/kg/injection, schedule: Q04DX003 (ip), vehicle: DMSO) was 106 % of control.

For `COc1cc(CC(=O)O)c([N+](=O)[O-])cc1OC`, the T/C (dose: 100.0 mg/kg/injection, schedule: Q01DX001 (ip), vehicle: carboxymethylcellulose (CMC)) was 97 % of control, the T/C [11] was 114 % of control and the T/C (dose: 200.0 mg/kg/injection, schedule: Q01DX001 (ip), vehicle: carboxymethylcellulose (CMC)) was 110 % of control. For the same molecule, the T/C (dose: 200.0 mg/kg/injection, schedule: Q01DX009 (ip), vehicle: Klucel (hydroxypropylcellulose) (HPC)) was 103 % of control, the T/C (dose: 400.0 mg/kg/injection, schedule: Q01DX001 (ip), vehicle: carboxymethylcellulose (CMC)) was 110 % of control and the T/C (dose: 400.0 mg/kg/injection, schedule: Q01DX009 (ip), vehicle: Klucel (hydroxypropylcellulose) (HPC)) was 101 % of control.

In the case of `O=C(NCCBr)OCc1ccccc1`, the T/C (dose: 50.0 mg/kg/injection, schedule: Q04DX003 (ip), vehicle: saline) is reported as 98 % of control, the T/C [1] is reported as 98 % of control and the T/C [2] is reported as 101 % of control.

`CCOC(=O)c1ccc(F)cc1` was tested, and the T/C (dose: 100.0 mg/kg/injection, schedule: Q04DX002 (ip), vehicle: saline with Tween-80) was 101 % of control, the T/C (dose: 200.0 mg/kg/injection, schedule: Q04DX002 (ip), vehicle: saline with Tween-80) was 115 % of control and the T/C (dose: 400.0 mg/kg/injection, schedule: Q04DX002 (ip), vehicle: saline with Tween-80) was 104 % of control.

In the case of `COc1cc(N)ccc1NC(=O)c1ccccc1`, the T/C (dose: 12.5 mg/kg/injection, schedule: Q01DX001 (ip), vehicle: carboxymethylcellulose (CMC)) is reported as 117 % of control and the T/C (dose: 25.0 mg/kg/injection, schedule: Q01DX001 (ip), vehicle: carboxymethylcellulose (CMC)) is reported as 106 % of control.

For `O=c1[nH]c(SCc2ccc([N+](=O)[O-])cc2)nc2ccccc12`, the T/C [8] was 111 % of control, the T/C [9] was 102 % of control and the T/C [10] was 94 % of control.

For `c1ccc2cc(C3OCC4(CCCC4)CO3)ccc2c1`, the T/C (dose: 100.0 mg/kg/injection, schedule: Q04DX002 (ip), vehicle: Klucel (hydroxypropylcellulose) (HPC)) was 103 % of control, the T/C (dose: 200.0 mg/kg/injection, schedule: Q04DX002 (ip), vehicle: Klucel (hydroxypropylcellulose) (HPC)) was 95 % of control and the T/C (dose: 400.0 mg/kg/injection, schedule: Q04DX002 (ip), vehicle: Klucel (hydroxypropylcellulose) (HPC)) was 103 % of control.

For `Cc1cccc(N)[n+]1CCC(=O)O`, the T/C (dose: 75.0 mg/kg/injection, schedule: Q04DX003 (ip), vehicle: saline) was 101 % of control, the T/C (dose: 150.0 mg/kg/injection, schedule: Q04DX003 (ip), vehicle: saline) was 94 % of control and the T/C (dose: 300.0 mg/kg/injection, schedule: Q04DX003 (ip), vehicle: saline) was 95 % of control.

In the case of `CS(=O)(=O)OCCN(CCOS(C)(=O)=O)c1ccc(N=O)cc1`, the T/C (dose: 0.08 mg/kg/injection, schedule: Q01DX Z (ip), vehicle: carboxymethylcellulose (CMC)) is reported as 115 % of control, the T/C (dose: 0.08 mg/kg/injection, schedule: Q01DX Z (ip), vehicle: saline) is reported as 117 % of control and the T/C (dose: 0.16 mg/kg/injection, schedule: Q01DX Z (ip), vehicle: carboxymethylcellulose (CMC)) is reported as 123 % of control. For the same molecule, the T/C (dose: 0.16 mg/kg/injection, schedule: Q01DX Z (ip), vehicle: saline) was 122 % of control, the T/C (dose: 0.63 mg/kg/injection, schedule: Q01DX Z (ip), vehicle: saline) was 120 % of control and the T/C (dose: 1.25 mg/kg/injection, schedule: Q01DX Z (ip), vehicle: saline) was 110 % of control. The T/C (dose: 1.28 mg/kg/injection, schedule: Q01DX Z (ip), vehicle: carboxymethylcellulose (CMC)) was 103 % of control, the T/C (dose: 2.0 mg/kg/injection, schedule: Q01DX001 (ip), vehicle: saline) was 120 % of control and the T/C (dose: 4.0 mg/kg/injection, schedule: Q01DX001 (ip), vehicle: saline) was 121 % of control.
